Measured values: patent US11866450B2, “Modulators of Cystic Fibrosis Transmembrane Conductance regulator, pharmaceutical compositions, methods of treatment, and process for making the modulators” (priority 2018, dated 2024)

Target: CFTR-mediated chloride transport (Homo sapiens, UniProt P13569)
Type: cell-based
Settings: enteroid cells incubated with test compound 18-24 hours, acute 10 μM forskolin and 300 nM Compound III; for Max. Activity: % of chloride transport with 3 μM Compound A, 3 μM Compound II and 300 nM acute Compound III triple combination control
In short: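 Membrane-potential fluorescence AUC over 15 min quantified CFTR chloride transport after acute forskolin (10 μM), IBMX (100 μM) and Compound III (300 nM) in chloride-free buffer. Human enteroid cells were pretreated with compound for 18–24 h; % Activity is relative to 3 μM Compound A + 3 μM Compound II + 300 nM Compound III.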

CFTR-mediated chloride transport, sequence (P13569 whole entry, looked up): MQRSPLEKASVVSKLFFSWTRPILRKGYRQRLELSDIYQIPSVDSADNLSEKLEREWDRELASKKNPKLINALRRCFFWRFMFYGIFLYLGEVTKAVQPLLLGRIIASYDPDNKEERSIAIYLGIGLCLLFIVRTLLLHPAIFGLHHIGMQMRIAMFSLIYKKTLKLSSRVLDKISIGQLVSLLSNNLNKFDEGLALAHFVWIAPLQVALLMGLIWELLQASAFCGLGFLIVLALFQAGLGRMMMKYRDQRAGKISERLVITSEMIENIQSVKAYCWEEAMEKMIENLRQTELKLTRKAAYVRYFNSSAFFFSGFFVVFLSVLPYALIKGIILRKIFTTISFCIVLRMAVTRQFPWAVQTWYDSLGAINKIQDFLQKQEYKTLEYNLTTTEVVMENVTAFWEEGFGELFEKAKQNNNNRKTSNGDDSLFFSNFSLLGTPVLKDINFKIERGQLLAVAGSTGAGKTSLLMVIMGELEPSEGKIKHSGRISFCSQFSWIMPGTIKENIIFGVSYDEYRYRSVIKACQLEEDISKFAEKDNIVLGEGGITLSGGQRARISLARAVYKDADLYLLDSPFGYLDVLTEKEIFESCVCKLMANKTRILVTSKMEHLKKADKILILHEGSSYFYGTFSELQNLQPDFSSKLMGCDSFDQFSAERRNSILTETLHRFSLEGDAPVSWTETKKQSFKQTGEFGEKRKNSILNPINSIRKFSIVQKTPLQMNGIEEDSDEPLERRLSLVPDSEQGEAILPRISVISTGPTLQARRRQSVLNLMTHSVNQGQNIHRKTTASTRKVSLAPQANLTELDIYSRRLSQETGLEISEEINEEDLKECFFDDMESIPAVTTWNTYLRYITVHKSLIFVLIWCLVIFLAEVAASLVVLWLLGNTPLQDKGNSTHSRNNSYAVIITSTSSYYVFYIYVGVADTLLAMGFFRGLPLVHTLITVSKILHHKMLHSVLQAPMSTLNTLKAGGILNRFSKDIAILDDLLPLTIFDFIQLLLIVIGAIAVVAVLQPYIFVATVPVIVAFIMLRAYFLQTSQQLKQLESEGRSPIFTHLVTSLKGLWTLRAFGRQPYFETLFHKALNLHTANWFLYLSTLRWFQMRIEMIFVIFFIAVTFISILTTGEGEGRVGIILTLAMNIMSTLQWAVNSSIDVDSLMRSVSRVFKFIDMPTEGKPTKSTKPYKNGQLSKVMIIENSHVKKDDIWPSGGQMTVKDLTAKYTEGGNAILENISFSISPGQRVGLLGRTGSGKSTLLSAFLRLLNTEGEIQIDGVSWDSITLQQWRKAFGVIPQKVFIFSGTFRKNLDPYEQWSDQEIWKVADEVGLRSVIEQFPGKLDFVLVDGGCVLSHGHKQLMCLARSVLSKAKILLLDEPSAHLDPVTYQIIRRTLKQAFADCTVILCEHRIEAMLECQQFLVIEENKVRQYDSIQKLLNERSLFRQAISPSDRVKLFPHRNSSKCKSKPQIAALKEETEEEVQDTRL

Structure (SMILES)	EC50 [nM]	Max. Activity
Cc1cc2nn1CCC[C@H]1CN(c3nc(-n4ccc(OCCC5(C(F)(F)F)CC5)n4)ccc3C(=O)NS2(=O)=O)C(C)(C)C1 (single isomer, unassigned) [Compound 150, 13,20,20-Trimethyl-4-(3-{2-[1-(trifluoromethyl)cyclopropyl]ethoxy}-1H-pyrazol-1-yl)-10λ^6-thia-1,3,9,14,22-pentaazatetracyclo[16.2.1.111,14.02,7]docosa-2,4,6,11(22),12-pentaene-8,10,10-trione]	1000 to 3000	+ (+ is <30%)
CC1(C)CC[C@H]2CCNc3cccc(n3)S(=O)(=O)NC(=O)c3ccc(-n4ccc(OCCC5(C(F)(F)F)CC5)n4)nc3N21 (single isomer, unassigned) [Compound 116, 8,8-Dimethyl-12-(3-{2-[1-(trifluoromethyl)cyclopropyl]ethoxy}-1H-pyrazol-1-yl)-18λ^6-thia-2,9,11,17,23-pentaazatetracyclo[17.3.1.05,9.010,15]tricosa-1(23),10(15),11,13,19,21-hexaene-16,18,18-trione]	< 1000	++ (++ is 30-60%)
CC(C)(C)COc1ccn(-c2ccc3c(n2)N2C[C@H](CCNc4cccc(n4)S(=O)(=O)NC3=O)CC2(C)C)n1 (single isomer, unassigned) [Compound 2, 11-[3-(2,2-dimethylpropoxy)-1H-pyrazol-1-yl]-7,7-dimethyl-17λ^6-thia-2,8,10,16,22-pentaazatetracyclo[16.3.1.15,8.09,14]tricosa-1(21),9(14),10,12,18(22),19-hexaene-15,17,17-trione]	1000 to 3000	+++ (+++ is >60%)
CC1CCC2CN(c3nc(-n4ccc(OCCC5(C(F)(F)F)CC5)n4)ccc3C(=O)NS(=O)(=O)c3cccc(n3)N1)C(C)(C)C2 (centres unmarked) [Compound 35, 12,12,17-trimethyl-8-(3-{2-[1-(trifluoromethyl)cyclopropyl]ethoxy}-1H-pyrazol-1-yl)-2λ^6-thia-3,9,11,18,23-pentaazatetracyclo[17.3.1.111,14.05,10]tetracosa-1(23),5(10),6,8,19,21-hexaene-2,2,4-trione]	< 1000	+++ (+++ is >60%)
C[C@@H]1CC[C@H]2CN(c3nc(N4CCN(CCC(C)(C)C)C4=O)ccc3C(=O)NS(=O)(=O)c3cccc(n3)N1)C(C)(C)C2 (single isomer, unassigned) [Compound 218, 8-[3-(3,3-dimethylbutyl)-2-oxoimidazolidin-1-yl]-12,12,17-trimethyl-2λ^6-thia-3,9,11,18,23-pentaazatetracyclo[17.3.1.111,14.05,10]tetracosa-1(22),5,7,9,19(23),20-hexaene-2,2,4-trione]	> 3000	+ (+ is <30%)
CC1(C)C[C@H]2CCCCNc3ccc(cn3)S(=O)(=O)NC(=O)c3ccc(-n4ccc(OCC5C6(CC6)C56CC6)n4)nc3N1C2 (single isomer, unassigned) [Compound 121, 8-[3-({dispiro[2.0.2.1]heptan-7-yl}methoxy)-1H-pyrazol-1-yl]-12,12-dimethyl-2λ^6-thia-3,9,11,19,21-pentaazatetracyclo[18.2.2.111,14.05,10]pentacosa-1(23),5,7,9,20(24),21-hexaene-2,2,4-trione]	< 1000	+++ (+++ is >60%)
CC1(C)C[C@@H]2CCCNc3cccc(n3)S(=O)(=O)NC(=O)c3ccc(N4CCN(C[C@H]5CC[C@@H](C(F)(F)F)CC5)C4=O)nc3N1C2 (single isomer, unassigned) [Compound 239]	< 1000	+ (+ is <30%)
CC1(C)C[C@H]2CCCCNc3cccc(n3)S(=O)(=O)NC(=O)c3ccc(-n4ccc(OCCC5(C(F)(F)F)CC5)n4)nc3N1C2 (single isomer, unassigned) [Compound 29, 12,12-dimethyl-8-(3-{2-[1-(trifluoromethyl)cyclopropyl]ethoxy}-1H-pyrazol-1-yl)-2λ^6-thia-3,9,11,19,24-pentaazatetracyclo[18.3.1.111,14.05,10]pentacosa-1(23),5,7,9,20(24),21-hexaene-2,2,4-trione]	< 1000	++ (++ is 30-60%)
CC1(C)C[C@@H]2CN1c1nc(-n3ccc(OCCCC4(C(F)(F)F)CC4)n3)ccc1C(=O)NS(=O)(=O)c1cccc(n1)NCCO2 (single isomer, unassigned) [Compound 160, 12,12-dimethyl-8-(3-{3-[1-(trifluoromethyl)cyclopropyl]propoxy}-1H-pyrazol-1-yl)-15-oxa-2λ^6-thia-3,9,11,18,23-pentaazatetracyclo[17.3.1.111,14.05,10]tetracosa-1(23),5,7,9,19,21-hexaene-2,2,4-trione]	< 1000	+++ (+++ is >60%)
CC1(C)C[C@H]2CCCCNc3ccc(cn3)S(=O)(=O)NC(=O)c3ccc(-n4ccc(OCCC5(C(F)(F)F)CC5)n4)nc3N1C2 (single isomer, unassigned) [Compound 68, 12,12-dimethyl-8-(3-{2-[1-(trifluoromethyl)cyclopropyl]ethoxy}-1H-pyrazol-1-yl)-2λ^6-thia-3,9,11,19,21-pentaazatetracyclo[18.2.2.111,14.05,10]pentacosa-1(23),5,7,9,20(24),21-hexaene-2,2,4-trione]	< 1000	++ (++ is 30-60%)
CC1(C)C[C@@H]2CCCNc3cccc(n3)S(=O)(=O)NC(=O)c3ccc(N4CCN(C56CC7CC(CC(C7)C5)C6)C4=O)nc3N1C2 [Compound 230, (14S)-8-[3-(Adamantan-1-yl)-2-oxoimidazolidin-1-yl]-12,12-dimethyl-2λ^6-thia-3,9,11,18,23-pentaazatetracyclo[17.3.1.111,14.05,10]tetracosa-1(22),5,7,9,19(23),20-hexaene-2,2,4-trione]	< 1000	+ (+ is <30%)
Cc1c2cnn1CCCC[C@H]1CN(c3nc(-n4ccc(OCCC5(C(F)(F)F)CC5)n4)ccc3C(=O)NS2(=O)=O)C(C)(C)C1 (single isomer, unassigned) [Compound 81, 21,21,23-trimethyl-4-(3-{2-[1-(trifluoromethyl)cyclopropyl]ethoxy}-1H-pyrazol-1-yl)-10λ^6-thia-1,3,9,13,14-pentaazatetracyclo[17.2.1.111,14.02,7]tricosa-2,4,6,11(23),12-pentaene-8,10,10-trione]	< 1000	++ (++ is 30-60%)
CC1(C)CC[C@H]2CCCCNc3cccc(n3)S(=O)(=O)NC(=O)c3ccc(-n4ccc(OCCC5(C(F)(F)F)CC5)n4)nc3N21 (single isomer, unassigned) [Compound 46, 12,12-dimethyl-8-(3-{2-[1-(trifluoromethyl)cyclopropyl]ethoxy}-1H-pyrazol-1-yl)-2λ^6-thia-3,9,11,20,25-pentaazatetracyclo[19.3.1.05,10.011,15]pentacosa-1(24),5,7,9,21(25),22-hexaene-2,2,4-trione]	> 3000	+ (+ is <30%)
CC1(C)C[C@H]2CCCOc3ccc(cc3)S(=O)(=O)NC(=O)c3ccc(-n4ccc(OCCC5(C(F)(F)F)CC5)n4)nc3N1C2 (single isomer, unassigned) [Compound 100, 12,12-dimethyl-8-(3-{2-[1-(trifluoromethyl)cyclopropyl]ethoxy}-1H-pyrazol-1-yl)-18-oxa-2λ^6-thia-3,9,11-triazatetracyclo[17.2.2.111,14.05,10]tetracosa-1(21),5,7,9,19,22-hexaene-2,2,4-trione]	> 3000	+ (+ is <30%)
CC1(C)C[C@@H]2CCCNc3cccc(n3)S(=O)(=O)NC(=O)c3ccc(N4CC[C@H](CCC5C6(CC6)C56CC6)C4=O)nc3N1C2 (single isomer, unassigned) [Compound 177]	< 1000	++ (++ is 30-60%)
CC(C)(C)CCO[C@H]1CCN(c2ccc3c(n2)N2C[C@@H](CCCNc4cccc(n4)S(=O)(=O)NC3=O)CC2(C)C)C1=O (single isomer, unassigned) [Compound 171]	< 1000	+++ (+++ is >60%)
CC1(C)C[C@@H]2CCCNc3cccc(n3)S(=O)(=O)NC(=O)c3ccc(-n4ccc(OCC(O)C5C6(CC6)C56CC6)n4)nc3N1C2 (stereo partly drawn) [Compound 257, (14S)-8-[3-(2-{dispiro[2.0.2.1]heptan-7-yl}-2-hydroxyethoxy)-1H-pyrazol-1-yl]-12,12-dimethyl-2λ^6-thia-3,9,11,18,23-pentaazatetracyclo[17.3.1.111,14.05,10]tetracosa-1(22),5,7,9,19(23),20-hexaene-2,2,4-trione]	< 1000	+++ (+++ is >60%)
CC1(C)C[C@H]2CCCn3ccc(n3)S(=O)(=O)NC(=O)c3ccc(-n4ccc(OCCC(C5CC5)C5CC5)n4)nc3N1C2 (single isomer, unassigned) [Compound 153, 4-[3-(3,3-dicyclopropylpropoxy)-1H-pyrazol-1-yl]-20,20-dimethyl-10λ^6-thia-1,3,9,14,22-pentaazatetracyclo[16.2.1.111,14.02,7]docosa-2,4,6,11(22),12-pentaene-8,10,10-trione]	> 3000	+ (+ is <30%)
CC1(C)C[C@H]2CCCn3cc(cn3)S(=O)(=O)NC(=O)c3ccc(-n4ccc(OCCC5(C(F)(F)F)CC5)n4)nc3N1C2 (single isomer, unassigned) [Compound 118, 20,20-Dimethyl-4-(3-{2-[1-(trifluoromethyl)cyclopropyl]ethoxy}-1H-pyrazol-1-yl)-10λ^6-thia-1,3,9,13,14-pentaazatetracyclo[16.2.1.111,14.02,7]docosa-2,4,6,11(22),12-pentaene-8,10,10-trione]	1000 to 3000	+ (+ is <30%)
